Experimental data as given in US20100298141A1, “SUBSTITUTED PYRIDINE N-OXIDE HERBICIDES” (E. I. DU PONT DE NEMOURS AND COMPANY, priority 2007, published 2010).

Tests used:
[1] = system: velvetleaf; test: Test A pre-/postemergence greenhouse test; type: in vivo, Abutilon theophrasti; details: for Plant response rating, Velvetleaf: 0 to 100 scale where 0 is no effect and 100 is complete control; for Velvetleaf plant response rating: 0 to 100 scale
Method in brief: (§1)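 Planting was into mixed loam soil and sand; preemergence treatment followed as a directed soil spray. Concurrently, emerged plants (one- to two-leaf, 2–10 cm) received postemergence applications of identically formulated compound (non-phytotoxic solvent, surfactant). After approximately ten days under greenhouse conditions, injury was judged by eye against untreated plants.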

[2] = system: Italian ryegrass; test: Test C pre-/postemergence test; type: in vivo, Lolium multiflorum
Source text: (§2) Seeds of plant species selected from blackgrass (Alopecurus myosuroides), downy brome (Bromus tectorum), green foxtail (Setaria viridis), Italian ryegrass (Lolium multiflorum), wheat (Triticum aestivum), wild oat (Avena fatua), catchweed bedstraw (Galium aparine), Russian thistle (Salsola kali), […] (Cynodon dactylon), Surinam grass (Brachiaria decumbens), cocklebur (Xanthium strumarium), corn (Zea mays), crabgrass (Digitaria sanguinalis), woolly cupgrass (Eriochloa villosa), giant foxtail (Setaria faberii), Goosegrass (Eleusin indica), johnsongrass (Sorghum halepense), kochia (Kochia scoparia), lambsquarters (Chenopodium album), morningglory (Ipomoea coccinea), eastern black nightshade (Solanum ptycanthum), yellow nutsedge (Cyperus esculentus), pigweed (Amaranthus retroflexus), common ragweed (Ambrosia elation), soybean (Glycine max), common (oilseed) sunflower (Helianthus annuus), and velvetleaf (Abutilon theophrasti) were planted and treated preemergence with test chemicals formulated in a non-phytotoxic solvent mixture which included a surfactant. At the same time, plants selected from these crop and weed species and also winter barley (Hordeum vulgare), canarygrass (Phalaris minor), and chickweed (Stellaria media) were treated with postemergence applications of some of the test chemicals formulated in the same manner. Plants ranged in height from 2 to 18 cm (1- to 4-leaf stage) for postemergence treatments. […] At time of treatment, test pots were flooded to 3 cm above the soil surface, treated by application of test compounds directly to the paddy water, and then maintained at that water depth for the duration of the test. […] A dash (-) response means no test result.

[3] = system: barnyardgrass; test: Test A pre-/postemergence greenhouse test; type: in vivo, Echinochloa crus-galli; details: for Plant response rating, Barnyardgrass: 0 to 100 scale where 0 is no effect and 100 is complete control; for Barnyardgrass plant response rating: 0 to 100 scale
Method in brief: as §1

[4] = system: green foxtail; test: Test C pre-/postemergence test; type: in vivo, Setaria viridis
Source text: as §2

[5] = Postemergence, 500 g ai/ha, 0 is no effect, 100 is complete control
[6] = Preemergence, 125 g ai/ha, 0 no effect, 100 complete control
[7] = 62 g ai/ha, Preemergence, scale 0 to 100
[8] = 125 g ai/ha, preemergence, scale 0 (no effect) to 100 (complete control)
[9] = Preemergence, 31 g ai/ha, scale 0 to 100 (0 no effect, 100 complete control)
[10] = preemergence, 250 g ai/ha, scale 0 (no effect) to 100 (complete control)
[11] = Postemergence, 125 g ai/ha, 0 is no effect, 100 is complete control
[12] = 31 g ai/ha, Preemergence, scale 0 to 100
[13] = 62 g ai/ha, preemergence, scale 0 (no effect) to 100 (complete control)
[14] = preemergence, 125 g ai/ha, scale 0 (no effect) to 100 (complete control)

Compound	Velvetleaf plant response rating [1, 5]	Velvetleaf plant response rating [1, 6]	Plant response rating, Velvetleaf ([1]; Preemergence, 500 g ai/ha)	Barnyardgrass plant response rating [3, 5]	Barnyardgrass plant response rating [3, 6]	Plant response rating, Barnyardgrass ([3]; Preemergence, 500 g ai/ha)	Velvetleaf plant response rating [1, 11]	Ryegrass, Italian plant response rating [2, 12]	Ryegrass, Italian plant response rating [2, 13]	Plant response rating (0 to 100), Ryegrass, Italian ([2]; Preemergence, 250 g ai/ha)	Ryegrass, Italian plant response rating [2, 14]	Barnyardgrass plant response rating [3, 11]	Foxtail, Green plant response rating [4, 12]	Foxtail, Green plant response rating [4, 13]	Plant response rating (0 to 100), Foxtail, Green ([4]; Preemergence, 250 g ai/ha)	Foxtail, Green plant response rating [4, 14]	also measured
CCc1cc[n+]([O-])c([S+]([O-])Cc2c(C(F)(F)F)nn(C)c2OCC(F)(F)F)c1 (stereo not shown) [Compound 59]	80	60	100	90	100	100											Plant response rating, Velvetleaf ([1]; Postemergence, 125 g ai/ha): 60; Ryegrass, Italian plant response rating [2, 7]: 55; Ryegrass, Italian plant response rating [2, 8]: 80; Plant response rating, Ryegrass, Italian [2, 9]: 30; Ryegrass, Italian plant response rating [2, 10]: 95; Plant response rating, Barnyardgrass ([3]; Postemergence, 125 g ai/ha): 80; Foxtail, Green plant response rating [4, 7]: 95; Foxtail, Green plant response rating [4, 8]: 100; Plant response rating, Foxtail, Green [4, 9]: 0; Foxtail, Green plant response rating [4, 10]: 100
Cn1nc(C(F)(F)F)c(C[S+]([O-])c2ccc(Br)c[n+]2[O-])c1OC(F)F (racemic) [Compound 16]	90	80	100	100	90	100	50	30	50	100	55	90	70	70	100	70	
Cn1nc(C(F)(F)F)c(CS(=O)(=O)c2ccc(Cl)c[n+]2[O-])c1OC(F)F [Compound 7]	20		30		90	90	0	0	40	50	50	10	40	60	100	80	
